Test results reported in ChEMBL document CHEMBL4184279, “Synthesis, antimicrobial activity and acid dissociation constants of methyl 5,5-diphenyl-1-(thiazol-2-yl)pyrrolidine-2-carboxylate derivatives” (Bioorg Med Chem Lett, 2018).
Values after ≈ are worked out from the molar mass of the structure shown.

Columns and labels:
[1] = tested on: Nakaseomyces glabratus; assay: Antifungal activity against Candida glabrata ATCC 90030 after 48 hrs by microdilution broth method; assay type: functional; conditions: ATCC 90030, 48 h
[2] = tested on: Acinetobacter baumannii; assay: Antibacterial activity against Acinetobacter baumannii ATCC 02026; assay type: functional
[3] = tested on: Aeromonas hydrophila; assay: Antibacterial activity against Aeromonas hydrophila ATCC 95080; assay type: functional
[4] = Acid dissociation constant, pKa for SH group of the compound in DMSO-water mixture at 25 +/- 0.1 degC by potentiometric method; assay type: physicochemical
[5] = tested on: Mycobacterium tuberculosis; assay: Antimycobacterial activity against Mycobacterium tuberculosis H37Rv after 7 days by REMA; assay type: functional; conditions: 168 h
[6] = tested on: Staphylococcus aureus; assay: Antibacterial activity against Staphylococcus aureus ATCC 25925; assay type: functional
[7] = tested on: Escherichia coli; assay: Antibacterial activity against Escherichia coli; assay type: functional
[8] = tested on: Candida tropicalis; assay: Antifungal activity against Candida tropicalis ATCC 750 after 48 hrs by microdilution broth method; assay type: functional; conditions: ATCC 750, 48 h
[9] = Acid dissociation constant, pKa for NH group of the compound in DMSO-water mixture at 25 +/- 0.1 degC by potentiometric method; assay type: physicochemical
[10] = tested on: Candida parapsilosis; assay: Antifungal activity against Candida parapsilosis ATCC 22019 after 48 hrs by microdilution broth method; assay type: functional; conditions: Lodderomyces parapsilosis, ATCC 22019, 48 h
[11] = tested on: Bacillus spizizenii; assay: Antibacterial activity against Bacillus subtilis ATCC 6633; assay type: functional
[12] = Acid dissociation constant, pKa for OH group of the compound in DMSO-water mixture at 25 +/- 0.1 degC by potentiometric method; assay type: physicochemical

Structure (SMILES)	MIC [1]	MIC [2]	MIC [3]	pKa [4]	MIC [5]	MIC [6]	MIC [7]	MIC [8]	pKa [9]	MIC [10]	MIC [11]	pKa [12]
COC(=O)[C@H]1[C@@H](C(=O)OC)C(c2ccccc2)(c2ccccc2)N(c2nc(-c3ccccc3)c(C(=O)c3ccc(Br)cc3)s2)[C@H]1C(=O)OC	31.2 µg/mL (≈ 42.3 µM)	62.5 µg/mL (≈ 84.5 µM)	62.5 µg/mL (≈ 84.5 µM)	6.02	3.91 µg/mL (≈ 5.29 µM)	125 µg/mL (≈ 169 µM)	125 µg/mL (≈ 169 µM)	125 µg/mL (≈ 169 µM)	3.27	125 µg/mL (≈ 169 µM)	62.5 µg/mL (≈ 84.5 µM)	9.23
COC(=O)[C@H]1C[C@@H](C(=O)OC)C(c2ccccc2)(c2ccccc2)N1c1nc(-c2ccccc2)c(C(=O)c2ccccc2)s1	31.2 µg/mL (≈ 51.8 µM)	250 µg/mL (≈ 415 µM)	250 µg/mL (≈ 415 µM)	6.58	15.6 µg/mL (≈ 25.9 µM)	125 µg/mL (≈ 207 µM)	125 µg/mL (≈ 207 µM)	62.5 µg/mL (≈ 104 µM)	2.99	62.5 µg/mL (≈ 104 µM)	125 µg/mL (≈ 207 µM)	9.67
COC(=O)[C@H]1C[C@@H](C(=O)OC)C(c2ccccc2)(c2ccccc2)N1c1nc(-c2ccccc2)c(C(=O)c2ccc(C#N)cc2)s1	31.2 µg/mL (≈ 49.8 µM)	250 µg/mL (≈ 398 µM)	250 µg/mL (≈ 398 µM)	5.61	15.6 µg/mL (≈ 24.9 µM)	125 µg/mL (≈ 199 µM)	125 µg/mL (≈ 199 µM)	62.5 µg/mL (≈ 99.6 µM)	3.78	62.5 µg/mL (≈ 99.6 µM)	250 µg/mL (≈ 398 µM)	8.67
COC(=O)[C@H]1C[C@@H](C(=O)OC)C(c2ccccc2)(c2ccccc2)N1c1nc(-c2ccccc2)c(C(=O)c2ccc(OC)cc2)s1	62.5 µg/mL (≈ 98.8 µM)	250 µg/mL (≈ 395 µM)	125 µg/mL (≈ 198 µM)	6.31	15.6 µg/mL (≈ 24.7 µM)	250 µg/mL (≈ 395 µM)	250 µg/mL (≈ 395 µM)	62.5 µg/mL (≈ 98.8 µM)	2.46	125 µg/mL (≈ 198 µM)	250 µg/mL (≈ 395 µM)	10
COC(=O)[C@H]1C[C@@H](S(=O)(=O)c2ccccc2)C(c2ccccc2)(c2ccccc2)N1c1nc(-c2ccccc2)c(C(=O)c2ccc(F)cc2)s1	31.2 µg/mL (≈ 44.5 µM)	62.5 µg/mL (≈ 88.9 µM)	62.5 µg/mL (≈ 88.9 µM)	5.84	1.96 µg/mL (≈ 2.79 µM)	125 µg/mL (≈ 178 µM)	125 µg/mL (≈ 178 µM)	62.5 µg/mL (≈ 88.9 µM)	3.4	62.5 µg/mL (≈ 88.9 µM)	62.5 µg/mL (≈ 88.9 µM)	8.73
COC(=O)[C@H]1C[C@@H](S(=O)(=O)c2ccccc2)C(c2ccccc2)(c2ccccc2)N1c1nc(-c2ccccc2)c(C(=O)c2ccc(C#N)cc2)s1	31.2 µg/mL (≈ 44 µM)	62.5 µg/mL (≈ 88 µM)	62.5 µg/mL (≈ 88 µM)	5.78	3.91 µg/mL (≈ 5.51 µM)	125 µg/mL (≈ 176 µM)	125 µg/mL (≈ 176 µM)	62.5 µg/mL (≈ 88 µM)	3.56	62.5 µg/mL (≈ 88 µM)	62.5 µg/mL (≈ 88 µM)	8.83
COC(=O)[C@H]1[C@@H](C(=O)OC)C(c2ccccc2)(c2ccccc2)N(c2nc(-c3ccccc3)c(C(=O)c3ccc(C#N)cc3)s2)[C@H]1C(=O)OC	31.2 µg/mL (≈ 45.6 µM)	62.5 µg/mL (≈ 91.1 µM)	62.5 µg/mL (≈ 91.1 µM)	5.66	7.81 µg/mL (≈ 11.4 µM)	125 µg/mL (≈ 182 µM)	125 µg/mL (≈ 182 µM)	62.5 µg/mL (≈ 91.1 µM)	3.53	31.2 µg/mL (≈ 45.6 µM)	62.5 µg/mL (≈ 91.1 µM)	8.9
COC(=O)[C@H]1C[C@@H](C(=O)OC)C(c2ccccc2)(c2ccccc2)N1c1nc(-c2ccccc2)c(C(=O)c2ccc(Br)cc2)s1	62.5 µg/mL (≈ 91.7 µM)	125 µg/mL (≈ 183 µM)	250 µg/mL (≈ 367 µM)	5.99	7.81 µg/mL (≈ 11.5 µM)	250 µg/mL (≈ 367 µM)	250 µg/mL (≈ 367 µM)	62.5 µg/mL (≈ 91.7 µM)	3.11	31.2 µg/mL (≈ 45.8 µM)	250 µg/mL (≈ 367 µM)	9.91
COC(=O)[C@H]1[C@@H](C(=O)OC)C(c2ccccc2)(c2ccccc2)N(c2nc(-c3ccccc3)c(C(=O)c3ccc(OC)cc3)s2)[C@H]1C(=O)OC	31.2 µg/mL (≈ 45.2 µM)	62.5 µg/mL (≈ 90.5 µM)	62.5 µg/mL (≈ 90.5 µM)	6.77	15.6 µg/mL (≈ 22.6 µM)	125 µg/mL (≈ 181 µM)	250 µg/mL (≈ 362 µM)	62.5 µg/mL (≈ 90.5 µM)	2.83	62.5 µg/mL (≈ 90.5 µM)	125 µg/mL (≈ 181 µM)	10.2
COC(=O)[C@H]1C[C@@H](C(=O)OC)C(c2ccccc2)(c2ccccc2)N1c1nc(-c2ccccc2)c(C(=O)c2ccc(F)cc2)s1	62.5 µg/mL (≈ 101 µM)	250 µg/mL (≈ 403 µM)	125 µg/mL (≈ 201 µM)	6.09	15.6 µg/mL (≈ 25.2 µM)	125 µg/mL (≈ 201 µM)	125 µg/mL (≈ 201 µM)	62.5 µg/mL (≈ 101 µM)	2.63	62.5 µg/mL (≈ 101 µM)	250 µg/mL (≈ 403 µM)	9.69
COC(=O)[C@H]1C[C@@H](S(=O)(=O)c2ccccc2)C(c2ccccc2)(c2ccccc2)N1c1nc(-c2ccccc2)c(C(=O)c2ccccc2)s1	31.2 µg/mL (≈ 45.6 µM)	31.2 µg/mL (≈ 45.6 µM)	62.5 µg/mL (≈ 91.3 µM)	5.9	3.91 µg/mL (≈ 5.71 µM)	125 µg/mL (≈ 183 µM)	125 µg/mL (≈ 183 µM)	31.2 µg/mL (≈ 45.6 µM)	3.26	62.5 µg/mL (≈ 91.3 µM)	62.5 µg/mL (≈ 91.3 µM)	8.64
COC(=O)[C@H]1C[C@@H](S(=O)(=O)c2ccccc2)C(c2ccccc2)(c2ccccc2)N1c1nc(-c2ccccc2)c(C(=O)c2ccc(OC)cc2)s1	31.2 µg/mL (≈ 43.7 µM)	62.5 µg/mL (≈ 87.4 µM)	62.5 µg/mL (≈ 87.4 µM)	6.01	3.91 µg/mL (≈ 5.47 µM)	125 µg/mL (≈ 175 µM)	125 µg/mL (≈ 175 µM)	62.5 µg/mL (≈ 87.4 µM)	3.35	62.5 µg/mL (≈ 87.4 µM)	62.5 µg/mL (≈ 87.4 µM)	9.28
COC(=O)[C@H]1[C@@H](C(=O)OC)C(c2ccccc2)(c2ccccc2)N(c2nc(-c3ccccc3)c(C(=O)c3ccccc3)s2)[C@H]1C(=O)OC	31.2 µg/mL (≈ 47.3 µM)	62.5 µg/mL (≈ 94.6 µM)	62.5 µg/mL (≈ 94.6 µM)	5.81	15.6 µg/mL (≈ 23.6 µM)	125 µg/mL (≈ 189 µM)	125 µg/mL (≈ 189 µM)	62.5 µg/mL (≈ 94.6 µM)	3.35	62.5 µg/mL (≈ 94.6 µM)	62.5 µg/mL (≈ 94.6 µM)	8.5
COC(=O)[C@H]1[C@@H](C(=O)OC)C(c2ccccc2)(c2ccccc2)N(c2nc(-c3ccccc3)c(C(=O)c3ccc(F)cc3)s2)[C@H]1C(=O)OC	31.2 µg/mL (≈ 46 µM)	62.5 µg/mL (≈ 92.1 µM)	62.5 µg/mL (≈ 92.1 µM)	6.37	15.6 µg/mL (≈ 23 µM)	125 µg/mL (≈ 184 µM)	125 µg/mL (≈ 184 µM)	62.5 µg/mL (≈ 92.1 µM)	2.73	62.5 µg/mL (≈ 92.1 µM)	62.5 µg/mL (≈ 92.1 µM)	10.2
COC(=O)[C@H]1C[C@@H](S(=O)(=O)c2ccccc2)C(c2ccccc2)(c2ccccc2)N1c1nc(-c2ccccc2)c(C(=O)c2ccc(Br)cc2)s1	31.2 µg/mL (≈ 40.9 µM)	31.2 µg/mL (≈ 40.9 µM)	62.5 µg/mL (≈ 81.8 µM)	5.99	0.98 µg/mL (≈ 1.28 µM)	125 µg/mL (≈ 164 µM)	125 µg/mL (≈ 164 µM)	62.5 µg/mL (≈ 81.8 µM)	2.97	62.5 µg/mL (≈ 81.8 µM)	62.5 µg/mL (≈ 81.8 µM)	9.53
CC1(C)S[C@@H]2[C@H](NC(=O)[C@H](N)c3ccccc3)C(=O)N2[C@H]1C(=O)O [AMPICILLIN]		125 µg/mL (≈ 358 µM)	31.2 µg/mL (≈ 89.4 µM)			31.2 µg/mL (≈ 89.4 µM)	15.6 µg/mL (≈ 44.7 µM)				0.98 µg/mL (≈ 2.8 µM)	
CC[C@@H](CO)NCCN[C@@H](CC)CO [ETHAMBUTOL]					1.96 µg/mL (≈ 9.59 µM)							
OC(Cn1cncn1)(Cn1cncn1)c1ccc(F)cc1F [FLUCONAZOLE]	3.9 µg/mL (≈ 12.7 µM)							15.6 µg/mL (≈ 51 µM)		3.9 µg/mL (≈ 12.7 µM)		
NNC(=O)c1ccncc1 [ISONIAZID]					0.98 µg/mL (≈ 7.15 µM)							
